In US10464964B2, “Galactoside inhibitor of galectins” (Galecto Biotech AB, priority 2015, dated 2019):
Converted amounts (≈) assume the structure as drawn. Where two headings read alike, the source gives them in different places.

Legend:
galectin-3 = galectin-3 (Homo sapiens, UniProt P17931); test: fluorescence anisotropy assay, inhibition of galectin / fluorescein tagged saccharide probe interaction
Galectin 1 = Galectin 1 (Homo sapiens, UniProt P09382); test: as above
Solubility = type: physicochemical
galectins = settings: cited from earlier work
[1] = aqueous buffer, 0.1 M phosphate buffer pH 6.5, read-out: Solubility buffer
[2] = water, read-out: Solubility water

galectin-3, sequence (P17931 whole entry): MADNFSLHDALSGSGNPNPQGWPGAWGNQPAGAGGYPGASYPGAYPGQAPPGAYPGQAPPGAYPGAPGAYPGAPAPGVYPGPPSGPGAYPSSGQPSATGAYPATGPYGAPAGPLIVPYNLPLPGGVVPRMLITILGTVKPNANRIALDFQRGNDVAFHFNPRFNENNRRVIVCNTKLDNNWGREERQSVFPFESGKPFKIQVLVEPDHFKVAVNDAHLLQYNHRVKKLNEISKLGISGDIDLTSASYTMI
Galectin 1, sequence (P09382 whole entry): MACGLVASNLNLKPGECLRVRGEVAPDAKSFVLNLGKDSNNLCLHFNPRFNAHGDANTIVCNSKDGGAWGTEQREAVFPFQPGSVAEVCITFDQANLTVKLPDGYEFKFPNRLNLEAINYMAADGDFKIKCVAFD

Which results are given for OCC1O[C@@H](SC2O[C@H](CO)C(O)C(n3cc(-c4ccc(F)cn4)nn3)[C@H]2O)C(O)C(n2cc(-c3ccc(F)cn3)nn2)[C@H]1O (stereo in doubt) [Example S4a, 3,3′-Dideoxy-3,3′-bis-[4-(5-fluoro-2-pyridin-2-yl)-1H-1,2,3-triazol-1-yl]-1,1′-sulfanediyl-di-β-D-galactopyranoside]?
Kd (galectin-3): 0.01 µM; Kd (Galectin 1): 0.021 µM; solubility (Solubility; [1]): 2600 µg/mL (≈ 4000 µM); solubility (Solubility; [2]): 4300 µg/mL (≈ 6610 µM)

What does the source list for Cn1cncc1-c1cn(C2C(O)[C@H](SC3O[C@H](CO)C(O)C(n4cc(-c5cncn5C)nn4)[C@H]3O)OC(CO)[C@@H]2O)nn1 (stereo in doubt) [Example S4c, 3,3′-Dideoxy-3,3′-bis-[4-(1-methyl-1H-imidazol-5-yl)-1H-1,2,3-triazol-1-yl]-1,1′-sulfanediyl-di-β-D-galactopyranoside]?
Kd (galectin-3): 0.131 µM; Kd (Galectin 1): 0.6 µM

For OCC1O[C@@H](SC2O[C@H](CO)C(O)C(n3cc(-c4ncc(C(F)(F)F)cc4Cl)nn3)[C@H]2O)C(O)C(n2cc(-c3ncc(C(F)(F)F)cc3Cl)nn2)[C@H]1O (stereo in doubt) [Example S4d, 3,3′-Dideoxy-3,3′-bis-[4-(3-chloro-5-trifluoromethyl-pyridin-2-yl)-1H-1,2,3-triazol-1-yl]-1,1′-sulfanediyl-di-β-D-galactopyranoside], which Kd (galectin-3) is on record?
Its Kd is 0.025 µM.

And the Kd (Galectin 1)?
Its Kd is 0.74 µM.

And the solubility (Solubility; [1])?
Its solubility is 200 µg/mL (≈ 244 µM).

With OCC1O[C@@H](SC2O[C@H](CO)C(O)C(n3cc(-c4ccccn4)nn3)[C@H]2O)C(O)C(n2cc(-c3ccccn3)nn2)[C@H]1O (stereo in doubt) [Example S4f, 3,3′-Dideoxy-3,3′-bis-[4-(pyridin-2-yl)-1H-1,2,3-triazol-1-yl]-1,1′-sulfanediyl-di-β-D-galactopyranoside] as the molecule, how does the Kd (galectin-3) read?
Its Kd is 0.042 µM.

What about the Kd (Galectin 1) of the same molecule?
Its Kd is 0.21 µM.

And the solubility (Solubility; [1])?
Its solubility is 450 µg/mL (≈ 732 µM).

For OCC1O[C@@H](SC2O[C@H](CO)C(O)C(n3cc(-c4ccc(F)cn4)nn3)[C@H]2O)C(O)C(n2cc(-c3cc(F)c(F)c(F)c3)nn2)[C@H]1O (stereo in doubt) [Example S7, 3,3′-Dideoxy-3-[4-(5-fluoropyridin-2-yl)-1H-1,2,3-triazol-1-yl]-3′-[4-(3,4,5-trifluorophenyl)-1H-1,2,3-triazol-1-yl]-1,1′-sulfanediyl-di-β-D-galactopyranoside], which Kd (galectin-3) is on record?
Its Kd is < 0.005 µM.

What about the Kd (Galectin 1) of the same molecule?
The Kd was 0.04 µM.

Which Kd (galectin-3) does the source give for OCC1O[C@@H](SC2O[C@H](CO)C(O)C(n3cc(-c4cccnc4)nn3)[C@H]2O)C(O)C(n2cc(-c3cc(F)c(F)c(F)c3)nn2)[C@H]1O (stereo in doubt) [Example S8a, 3,3′-3-[4-(pyridin-3-yl)-1H-1,2,3-triazol-1-yl]-3′-[4-(3,4,5-trifluorophenyl)-1H-1,2,3-triazol-1-yl]-1,1′-sulfanediyl-di-β-D-galactopyranoside] here?
Its Kd is 0.002 µM.

And the Kd (Galectin 1)?
Its Kd is 0.038 µM.

What about the solubility (Solubility; [1]) of the same molecule?
Its solubility is 41 µg/mL (≈ 61.4 µM).

Which Kd (galectin-3) does the source give for OCC1O[C@@H](SC2O[C@H](CO)C(O)C(n3cc(-c4cncnc4)nn3)[C@H]2O)C(O)C(n2cc(-c3cc(F)c(F)c(F)c3)nn2)[C@H]1O (stereo in doubt) [Example S8b, 3,3′-Dideoxy-3-[4-(1,3-pyrimidin-5-yl)-1H-1,2,3-triazol-1-yl]-3′-[4-(3,4,5-trifluorophenyl)-1H-1,2,3-triazol-1-yl]-1,1′-sulfanediyl-di-β-D-galactopyranoside] here?
Its Kd is < 0.002 µM.

And the Kd (Galectin 1)?
The Kd was 0.08 µM.

What about the solubility (Solubility; [1]) of the same molecule?
The solubility was 360 µg/mL (≈ 538 µM).

What does the source list for OCC1O[C@@H](SC2O[C@H](CO)C(O)C(n3cc(-c4ncccn4)nn3)[C@H]2O)C(O)C(n2cc(-c3cc(F)c(F)c(F)c3)nn2)[C@H]1O (stereo in doubt) [Example S8c, 3,3′-Dideoxy-3-[4-(1,3-pyrimidin-2-yl)-1H-1,2,3-triazol-1-yl]-3′-[4-(3,4,5-trifluorophenyl)-1H-1,2,3-triazol-1-yl]-1,1′-sulfanediyl-di-β-D-galactopyranoside]?
Kd (galectin-3): < 0.002 µM; Kd (Galectin 1): 0.07 µM; solubility (Solubility; [1]): 4600 µg/mL (≈ 6880 µM)

Which Kd (galectin-3) does the source give for OCC1O[C@@H](SC2O[C@H](CO)C(O)C(n3cc(-c4ccccn4)nn3)[C@H]2O)C(O)C(n2cc(-c3cc(F)c(F)c(F)c3)nn2)[C@H]1O (stereo in doubt) [Example S8d, 3,3′-Dideoxy-3-[4-(pyridin-2-yl)-1H-1,2,3-triazol-1-yl]-3′-[4-(3,4,5-trifluorophenyl)-1H-1,2,3-triazol-1-yl]-1,1′-sulfanediyl-di-β-D-galactopyranoside] here?
Its Kd is 0.001 µM.

What about the Kd (Galectin 1) of the same molecule?
The Kd was 0.038 µM.

And the solubility (Solubility; [1])?
Its solubility is 1400 µg/mL (≈ 2100 µM).

For OCC1O[C@@H](SC2O[C@H](CO)C(O)C(n3cc(-c4ccncc4)nn3)[C@H]2O)C(O)C(n2cc(-c3cc(F)c(F)c(F)c3)nn2)[C@H]1O (stereo in doubt) [Example S8e, 3,3′-Dideoxy-3-[4-(pyridin-4-yl)-1H-1,2,3-triazol-1-yl]-3′-[4-(3,4,5-trifluorophenyl)-1H-1,2,3-triazol-1-yl]-1,1′-sulfanediyl-di-β-D-galactopyranoside], which Kd (galectin-3) is on record?
The Kd was 0.001 µM.

What about the Kd (Galectin 1) of the same molecule?
Its Kd is 0.072 µM.

And the solubility (Solubility; [1])?
Its solubility is 1300 µg/mL (≈ 1950 µM).

With CC(=O)Nc1ccc(-c2cn(C3C(O)[C@@H](CO)OC(S[C@@H]4OC(CO)[C@H](O)C(n5cc(-c6cc(F)c(F)c(F)c6)nn5)C4O)[C@@H]3O)nn2)cn1 (stereo in doubt) [Example S8f, 3-[4-((2-acetamid-N-yl)-pyridin-5-yl)-3,3′-dideoxy-1H-1,2,3-triazol-1-yl]-3′-[4-(3,4,5-trifluorophenyl)-1H-1,2,3-triazol-1-yl]-1,1′-sulfanediyl-di-β-D-galactopyranoside] as the molecule, how does the Kd (galectin-3) read?
Its Kd is 0.005 µM.

And the Kd (Galectin 1)?
Its Kd is 0.149 µM.

What about the solubility (Solubility; [1]) of the same molecule?
The solubility was 770 µg/mL (≈ 1060 µM).

For Nc1ccc(-c2cn(C3C(O)[C@@H](CO)OC(S[C@@H]4OC(CO)[C@H](O)C(n5cc(-c6cc(F)c(F)c(F)c6)nn5)C4O)[C@@H]3O)nn2)cn1 (stereo in doubt) [Example S8g, 3-[4-(2-aminopyridin-5-yl)-3,3′-dideoxy-1H-1,2,3-triazol-1-yl]-3′-[4-(3,4,5-trifluorophenyl)-1H-1,2,3-triazol-1-yl]-1,1′-sulfanediyl-di-β-D-galactopyranoside], which Kd (galectin-3) is on record?
Its Kd is < 0.002 µM.

And the Kd (Galectin 1)?
The Kd was 0.034 µM.

And the solubility (Solubility; [1])?
The solubility was 1800 µg/mL (≈ 2640 µM).

What does the source list for OCC1O[C@@H](SC2O[C@H](CO)C(O)C(n3cc(-c4ncc(F)cn4)nn3)[C@H]2O)C(O)C(n2cc(-c3cc(F)c(F)c(F)c3)nn2)[C@H]1O (stereo in doubt) [Example S8h, 3,3′-Dideoxy-3-[4-(5-fluoro-1,3-pyrimidin-2-yl)-1H-1,2,3-triazol-1-yl]-3′-[4-(3,4,5-trifluorophenyl)-1H-1,2,3-triazol-1-yl]-1,1′-sulfanediyl-di-β-D-galactopyranoside]?
Kd (galectin-3): < 0.002 µM; Kd (Galectin 1): 0.055 µM; solubility (Solubility; [1]): 3300 µg/mL (≈ 4810 µM)

For O=C[C@H](O)[C@@H](O)[C@@H](O)[C@H](O)CO [D-galactose], which “affinity, times lower than lactose” value (galectins; relative to lactose) is on record?
Its value is 50-100 times.

Which results are given for COc1ccc(-c2cn(C3C(O)[C@@H](CO)OC(S[C@@H]4OC(CO)[C@H](O)[C@H](n5cc(-c6ccc(OC)nc6)nn5)C4O)[C@@H]3O)nn2)cn1 (stereo partly drawn) [Example S4b, 3,3′-Dideoxy-3,3′-bis-[4-(6-methoxypyridin-3-yl)-1H-1,2,3-triazol-1-yl]-1,1′-sulfanediyl-di-β-D-galactopyranoside]?
Kd (galectin-3): 0.012 µM; Kd (Galectin 1): 0.12 µM

Which Kd (galectin-3) does the source give for OCC1O[C@@H](S[C@@H]2O[C@H](CO)C(O)C(n3cc(-c4cncnc4)nn3)[C@H]2O)C(O)[C@@H](n2cc(-c3cncnc3)nn2)[C@H]1O (stereo partly drawn) [Example S4e, 3,3′-Dideoxy-3,3′-bis-[4-(pyrimidin-5-yl)-1H-1,2,3-triazol-1-yl]-1,1′-sulfanediyl-di-β-D-galactopyranoside] here?
The Kd was 0.044 µM.

And the Kd (Galectin 1)?
Its Kd is 0.39 µM.

What about the solubility (Solubility; [1]) of the same molecule?
Its solubility is 7 µg/mL (≈ 11.4 µM).

Which solubility (Solubility; [2]) does the source give for OCC1O[C@@H](SC2O[C@H](CO)C(O)C(n3cc(-c4cccc(F)c4)nn3)[C@H]2O)C(O)[C@@H](n2cc(-c3cccc(F)c3)nn2)[C@H]1O (stereo partly drawn) [Ref 1, 3,3′-bis-[4-(3-fluorophenyl)-1H-1,2,3-triazol-1-yl]-1,1′-sulfanediyl-di-β-D-galactopyranoside, reference compound] here?
The solubility was 400 µg/mL (≈ 617 µM).

Which Kd (galectins; all galectins) does the source give for OC[C@H]1O[C@@H](O[C@H]2[C@H](O)[C@@H](O)C(O)O[C@@H]2CO)[C@H](O)[C@@H](O)[C@H]1O (stereo partly shown) [lactose] here?
Its Kd is 500 to 1000 µM.
